Measurements from publication PMC12090182, “Repurposing of the RIPK1-Selective Benzo[1,4]oxazepin-4-one Scaffold for the Development of a Type III LIMK1/2 Inhibitor” (ACS Chemical Biology, 2025).

What was measured:
Experiment in all cases: scanMAX KINOMEscan (Eurofins)
Type in all cases: binding
[1] = molecular target: STK39 (Homo sapiens, UniProt Q9UEW8); details: 1000 nM, read-out: Percent Control
Description: (§1) Supplement cb5c00097_si_002.xlsx, sheet "Table S6 (Eurofins Selectivity)" | column: Percent Control

[2] = molecular target: IKK-beta (Homo sapiens, UniProt O14920); details: read-out: Percent Control
Description: as §1

[3] = molecular target: TYK2(JH1domain-catalytic) (Homo sapiens, UniProt P29597); details: 1000 nM, read-out: Percent Control
Description: as §1

[4] = molecular target: PKMYT1 (Homo sapiens, UniProt Q99640); details: 1000 nM, read-out: Percent Control
Description: as §1

[5] = molecular target: RIPK4 (Homo sapiens, UniProt P57078); details: 1000 nM, read-out: Percent Control
Description: as §1

[6] = molecular target: MTOR (Homo sapiens, UniProt P42345); details: compound concentration 100 nM; Entrez MTOR; read-out: Percent Control
Description: as §1

[7] = molecular target: RSK4(Kin.Dom.1-N-terminal) (Homo sapiens, UniProt Q9UK32); details: compound concentration 100 nM; Entrez RPS6KA6; read-out: Percent Control
Description: as §1

[8] = molecular target: TAOK1 (Homo sapiens, UniProt Q7L7X3); details: compound concentration 100 nM; Entrez TAOK1; read-out: Percent Control
Description: as §1

[9] = molecular target: MET (Homo sapiens, UniProt P08581); details: 1000 nM, read-out: Percent Control
Description: as §1

[10] = molecular target: PRKR (Homo sapiens, UniProt P19525); details: compound concentration 100 nM; Entrez EIF2AK2; read-out: Percent Control
Description: as §1

[11] = molecular target: PAK7 (Homo sapiens, UniProt Q9P286); details: 1000 nM, read-out: Percent Control
Description: as §1

[12] = molecular target: DYRK1B (Homo sapiens, UniProt Q9Y463); details: read-out: Percent Control
Description: as §1

[13] = molecular target: S6K1 (Homo sapiens, UniProt P23443); details: compound concentration 100 nM; Entrez RPS6KB1; read-out: Percent Control
Description: as §1

[14] = molecular target: PIP5K2B (Homo sapiens, UniProt P78356); details: 1000 nM, read-out: Percent Control
Description: as §1

[15] = molecular target: p38-alpha (Homo sapiens, UniProt Q16539); details: compound concentration 100 nM; Entrez MAPK14; read-out: Percent Control
Description: as §1

[16] = molecular target: YANK1 (Homo sapiens, UniProt Q8WU08); details: 1000 nM, read-out: Percent Control
Description: as §1

[17] = molecular target: RSK2(Kin.Dom.2-C-terminal) (Homo sapiens, UniProt P51812); details: 1000 nM, read-out: Percent Control
Description: as §1

[18] = molecular target: p38-beta (Homo sapiens, UniProt Q15759); details: 1000 nM, read-out: Percent Control
Description: as §1

[19] = molecular target: PAK6 (Homo sapiens, UniProt Q9NQU5); details: compound concentration 100 nM; Entrez PAK6; read-out: Percent Control
Description: as §1

[20] = molecular target: YSK1 (Homo sapiens, UniProt O00506); details: compound concentration 100 nM; Entrez STK25; read-out: Percent Control
Description: as §1

[21] = molecular target: BMPR1A (Homo sapiens, UniProt P36894); details: 1000 nM, read-out: Percent Control
Description: as §1

[22] = molecular target: SGK3 (Homo sapiens, UniProt Q96BR1); details: 1000 nM, read-out: Percent Control
Description: as §1

[23] = molecular target: MST1R (Homo sapiens, UniProt Q04912); details: 1000 nM, read-out: Percent Control
Description: as §1

[24] = molecular target: PKNB(M.tuberculosis) (Mycobacterium tuberculosis, UniProt P9WI81); details: 1000 nM, read-out: Percent Control
Description: as §1

[25] = molecular target: PFPK5(P.falciparum) (Plasmodium falciparum, UniProt P61075); details: 1000 nM, read-out: Percent Control
Description: as §1

[26] = molecular target: GSK3B (Homo sapiens, UniProt P49841); details: read-out: Percent Control
Description: as §1

[27] = molecular target: ABL1-phosphorylated (Homo sapiens, UniProt P00519); details: read-out: Percent Control
Description: as §1

[28] = molecular target: AKT1 (Homo sapiens, UniProt P31749); details: 1000 nM, read-out: Percent Control
Description: as §1

[29] = molecular target: DRAK2 (Homo sapiens, UniProt O94768); details: 1000 nM, read-out: Percent Control
Description: as §1

[30] = molecular target: PKN2 (Homo sapiens, UniProt Q16513); details: compound concentration 100 nM; Entrez PKN2; read-out: Percent Control
Description: as §1

[31] = molecular target: DAPK2 (Homo sapiens, UniProt Q9UIK4); details: 1000 nM, read-out: Percent Control
Description: as §1

[32] = molecular target: CSNK2A1 (Homo sapiens, UniProt P68400); details: read-out: Percent Control
Description: as §1

[33] = molecular target: INSRR (Homo sapiens, UniProt P14616); details: 1000 nM, read-out: Percent Control
Description: as §1

[34] = molecular target: INSR (Homo sapiens, UniProt P06213); details: 1000 nM, read-out: Percent Control
Description: as §1

[35] = molecular target: RSK1(Kin.Dom.1-N-terminal) (Homo sapiens, UniProt Q15418); details: compound concentration 100 nM; Entrez RPS6KA1; read-out: Percent Control
Description: as §1

Chain of CSNK2A1 (P68400 whole entry): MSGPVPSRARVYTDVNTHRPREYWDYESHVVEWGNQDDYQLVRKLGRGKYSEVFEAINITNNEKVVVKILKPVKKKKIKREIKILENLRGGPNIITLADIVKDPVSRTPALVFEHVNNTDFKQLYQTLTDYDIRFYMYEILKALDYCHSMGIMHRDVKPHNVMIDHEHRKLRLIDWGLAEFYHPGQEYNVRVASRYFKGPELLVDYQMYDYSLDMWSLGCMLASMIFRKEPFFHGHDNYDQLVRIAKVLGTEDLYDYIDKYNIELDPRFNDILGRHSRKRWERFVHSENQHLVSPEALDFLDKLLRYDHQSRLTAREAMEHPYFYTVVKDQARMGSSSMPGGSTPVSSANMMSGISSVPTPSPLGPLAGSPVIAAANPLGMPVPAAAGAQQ
Chain of ABL1-phosphorylated (P00519 whole entry): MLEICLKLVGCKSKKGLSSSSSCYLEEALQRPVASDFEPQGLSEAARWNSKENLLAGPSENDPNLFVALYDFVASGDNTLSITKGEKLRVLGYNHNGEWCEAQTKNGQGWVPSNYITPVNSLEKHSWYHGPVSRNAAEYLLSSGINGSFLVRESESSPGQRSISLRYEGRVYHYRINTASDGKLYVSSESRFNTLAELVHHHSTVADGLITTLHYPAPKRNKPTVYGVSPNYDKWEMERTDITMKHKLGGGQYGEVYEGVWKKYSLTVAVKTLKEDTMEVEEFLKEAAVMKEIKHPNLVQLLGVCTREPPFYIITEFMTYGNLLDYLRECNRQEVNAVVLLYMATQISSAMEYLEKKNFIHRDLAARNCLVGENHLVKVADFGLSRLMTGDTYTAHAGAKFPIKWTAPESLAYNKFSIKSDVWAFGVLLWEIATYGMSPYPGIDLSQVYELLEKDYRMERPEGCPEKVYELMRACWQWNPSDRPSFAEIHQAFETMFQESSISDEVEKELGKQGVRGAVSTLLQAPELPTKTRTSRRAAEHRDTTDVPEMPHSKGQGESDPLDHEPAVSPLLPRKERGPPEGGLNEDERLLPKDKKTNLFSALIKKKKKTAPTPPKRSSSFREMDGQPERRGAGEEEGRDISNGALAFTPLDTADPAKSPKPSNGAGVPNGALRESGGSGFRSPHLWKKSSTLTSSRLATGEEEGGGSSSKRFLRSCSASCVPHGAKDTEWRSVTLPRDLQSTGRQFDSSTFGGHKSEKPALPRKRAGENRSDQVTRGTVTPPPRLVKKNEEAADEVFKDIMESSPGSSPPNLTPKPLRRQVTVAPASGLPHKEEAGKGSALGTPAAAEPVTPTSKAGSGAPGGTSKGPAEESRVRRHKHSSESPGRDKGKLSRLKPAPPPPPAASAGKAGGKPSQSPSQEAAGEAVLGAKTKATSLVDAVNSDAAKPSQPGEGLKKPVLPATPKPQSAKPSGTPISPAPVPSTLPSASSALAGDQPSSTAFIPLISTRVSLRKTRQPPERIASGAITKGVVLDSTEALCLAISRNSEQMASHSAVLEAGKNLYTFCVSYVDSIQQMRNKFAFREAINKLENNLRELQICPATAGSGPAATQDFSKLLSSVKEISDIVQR
Chain of IKK-beta (O14920 whole entry): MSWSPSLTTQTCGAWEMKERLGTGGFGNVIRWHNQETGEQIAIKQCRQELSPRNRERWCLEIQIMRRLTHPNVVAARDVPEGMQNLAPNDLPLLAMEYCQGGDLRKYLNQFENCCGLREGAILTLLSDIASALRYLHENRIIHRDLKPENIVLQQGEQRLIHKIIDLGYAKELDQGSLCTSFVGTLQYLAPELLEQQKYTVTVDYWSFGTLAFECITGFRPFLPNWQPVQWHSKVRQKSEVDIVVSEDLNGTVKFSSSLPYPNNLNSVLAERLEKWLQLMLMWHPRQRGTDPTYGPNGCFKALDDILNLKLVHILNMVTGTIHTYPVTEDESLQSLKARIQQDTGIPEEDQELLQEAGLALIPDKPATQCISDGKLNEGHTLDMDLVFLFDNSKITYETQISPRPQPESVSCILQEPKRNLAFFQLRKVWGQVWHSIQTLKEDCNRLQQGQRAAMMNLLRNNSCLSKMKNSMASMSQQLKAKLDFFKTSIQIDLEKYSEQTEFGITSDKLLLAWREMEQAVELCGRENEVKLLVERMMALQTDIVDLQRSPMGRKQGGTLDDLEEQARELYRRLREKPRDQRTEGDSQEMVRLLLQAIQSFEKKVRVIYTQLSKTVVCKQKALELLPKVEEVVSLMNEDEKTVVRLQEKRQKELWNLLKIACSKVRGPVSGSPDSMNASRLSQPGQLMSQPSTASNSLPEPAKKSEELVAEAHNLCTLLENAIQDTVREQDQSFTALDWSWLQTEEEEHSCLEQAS
Chain of GSK3B (P49841 whole entry): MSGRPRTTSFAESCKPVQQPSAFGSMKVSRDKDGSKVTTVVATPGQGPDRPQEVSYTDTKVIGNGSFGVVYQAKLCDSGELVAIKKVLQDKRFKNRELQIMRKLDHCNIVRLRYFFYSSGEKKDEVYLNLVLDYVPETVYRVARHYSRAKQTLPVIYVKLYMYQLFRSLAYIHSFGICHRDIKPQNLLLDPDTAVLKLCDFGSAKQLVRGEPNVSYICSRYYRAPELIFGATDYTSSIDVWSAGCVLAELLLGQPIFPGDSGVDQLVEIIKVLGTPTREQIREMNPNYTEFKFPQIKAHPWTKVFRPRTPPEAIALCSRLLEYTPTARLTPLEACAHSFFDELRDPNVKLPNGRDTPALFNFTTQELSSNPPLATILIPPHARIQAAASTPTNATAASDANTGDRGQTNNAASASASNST
Chain of DYRK1B (Q9Y463 whole entry): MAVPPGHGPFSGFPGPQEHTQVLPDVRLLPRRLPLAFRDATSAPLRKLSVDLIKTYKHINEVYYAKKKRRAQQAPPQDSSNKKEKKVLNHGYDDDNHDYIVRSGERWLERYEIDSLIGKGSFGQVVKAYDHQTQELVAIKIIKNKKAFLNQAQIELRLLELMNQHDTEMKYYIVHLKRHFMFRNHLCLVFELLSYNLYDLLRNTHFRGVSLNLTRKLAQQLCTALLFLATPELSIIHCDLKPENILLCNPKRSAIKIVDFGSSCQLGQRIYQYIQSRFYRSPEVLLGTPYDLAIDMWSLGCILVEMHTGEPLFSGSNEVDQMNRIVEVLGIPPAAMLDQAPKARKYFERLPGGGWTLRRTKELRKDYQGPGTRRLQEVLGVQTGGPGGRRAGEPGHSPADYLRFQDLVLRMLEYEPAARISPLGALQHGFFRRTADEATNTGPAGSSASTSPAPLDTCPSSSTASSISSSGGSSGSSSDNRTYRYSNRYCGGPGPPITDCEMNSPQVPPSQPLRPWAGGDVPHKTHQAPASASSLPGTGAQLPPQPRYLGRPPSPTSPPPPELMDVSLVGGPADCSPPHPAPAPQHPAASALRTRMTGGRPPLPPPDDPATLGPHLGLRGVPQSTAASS
Chain of RSK1(Kin.Dom.1-N-terminal) (Q15418 62-391): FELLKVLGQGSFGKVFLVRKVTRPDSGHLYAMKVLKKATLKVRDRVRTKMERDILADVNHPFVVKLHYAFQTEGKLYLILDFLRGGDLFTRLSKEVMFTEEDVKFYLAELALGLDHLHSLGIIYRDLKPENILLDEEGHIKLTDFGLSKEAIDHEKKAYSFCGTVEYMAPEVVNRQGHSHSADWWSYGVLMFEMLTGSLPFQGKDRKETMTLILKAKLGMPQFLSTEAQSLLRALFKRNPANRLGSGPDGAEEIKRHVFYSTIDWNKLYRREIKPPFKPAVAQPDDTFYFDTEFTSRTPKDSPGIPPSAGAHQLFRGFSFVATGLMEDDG
Chain of SGK3 (Q96BR1 whole entry): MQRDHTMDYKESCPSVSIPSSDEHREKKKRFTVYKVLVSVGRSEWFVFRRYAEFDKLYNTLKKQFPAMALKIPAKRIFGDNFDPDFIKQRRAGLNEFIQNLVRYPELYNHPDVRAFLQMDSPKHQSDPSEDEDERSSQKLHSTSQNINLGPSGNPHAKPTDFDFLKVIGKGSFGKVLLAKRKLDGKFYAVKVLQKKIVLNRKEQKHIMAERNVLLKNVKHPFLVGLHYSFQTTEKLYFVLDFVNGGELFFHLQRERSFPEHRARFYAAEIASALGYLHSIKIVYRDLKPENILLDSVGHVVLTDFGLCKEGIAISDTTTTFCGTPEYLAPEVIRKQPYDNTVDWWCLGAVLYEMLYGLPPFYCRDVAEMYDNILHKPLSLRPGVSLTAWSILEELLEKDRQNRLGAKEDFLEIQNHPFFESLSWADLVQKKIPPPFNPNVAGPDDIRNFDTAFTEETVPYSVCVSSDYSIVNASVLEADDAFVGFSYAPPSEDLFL
Chain of PIP5K2B (P78356 whole entry): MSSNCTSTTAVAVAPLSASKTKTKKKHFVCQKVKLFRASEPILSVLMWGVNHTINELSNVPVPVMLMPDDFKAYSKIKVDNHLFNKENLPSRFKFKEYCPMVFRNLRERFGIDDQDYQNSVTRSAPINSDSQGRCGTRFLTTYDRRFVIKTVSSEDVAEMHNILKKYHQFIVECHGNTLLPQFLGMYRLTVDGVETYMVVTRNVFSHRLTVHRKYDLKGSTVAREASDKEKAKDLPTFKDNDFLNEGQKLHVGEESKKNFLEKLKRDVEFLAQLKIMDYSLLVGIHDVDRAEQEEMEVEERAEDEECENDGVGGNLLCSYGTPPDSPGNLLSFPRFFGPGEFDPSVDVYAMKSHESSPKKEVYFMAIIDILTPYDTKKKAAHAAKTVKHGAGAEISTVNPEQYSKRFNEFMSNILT
Chain of p38-beta (Q15759 whole entry): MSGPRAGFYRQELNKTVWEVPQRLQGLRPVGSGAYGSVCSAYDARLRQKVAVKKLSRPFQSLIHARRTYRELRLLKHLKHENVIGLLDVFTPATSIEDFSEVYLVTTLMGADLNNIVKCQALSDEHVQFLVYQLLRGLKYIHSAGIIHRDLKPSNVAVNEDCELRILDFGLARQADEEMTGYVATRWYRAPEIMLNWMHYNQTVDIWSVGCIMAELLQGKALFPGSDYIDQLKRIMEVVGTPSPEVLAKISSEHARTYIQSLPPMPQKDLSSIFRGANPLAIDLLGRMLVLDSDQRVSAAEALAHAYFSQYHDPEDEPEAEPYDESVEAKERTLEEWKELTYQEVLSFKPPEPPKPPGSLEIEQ

Q: How did the remaining binding at 1 µM [1] turn out when `CN1C(=O)[C@@H](N2CCc3c(nn(Cc4ccccc4)c3C(N)=O)C2=O)COc2cc(Cl)ccc21` [Compound 10, (S)-2-benzyl-6-(8-chloro-5-methyl-4-oxo-2,3,4,5-tetrahydrobenzo[b][1,4]oxazepin-3-yl)-7-oxo-4,5,6,7-tetrahydro-2H-pyrazolo[3,4-c]pyridine-3-carboxamide] was run?
A: Its remaining binding at 1 µM is 84%.

Q: And the remaining binding at 1 µM ([2]; 1000 nM)?
A: The remaining binding at 1 µM was 100%.

Q: What about the remaining binding at 0.1 µM ([2]; compound concentration 100 nM, Entrez IKBKB) of the same compound?
A: Its remaining binding at 0.1 µM is 97%.

Q: What about the remaining binding at 1 µM [3] of the same compound?
A: The remaining binding at 1 µM was 74%.

Q: And the remaining binding at 1 µM [4]?
A: The remaining binding at 1 µM was 95%.

Q: What about the remaining binding at 1 µM [5] of the same compound?
A: The remaining binding at 1 µM was 83%.

Q: And the remaining binding at 0.1 µM [6]?
A: The remaining binding at 0.1 µM was 86%.

Q: And the remaining binding at 0.1 µM [7]?
A: Its remaining binding at 0.1 µM is 100%.

Q: And the remaining binding at 0.1 µM [8]?
A: The remaining binding at 0.1 µM was 100%.

Q: And the remaining binding at 1 µM [9]?
A: The remaining binding at 1 µM was 94%.

Q: And the remaining binding at 0.1 µM [10]?
A: Its remaining binding at 0.1 µM is 71%.

Q: And the remaining binding at 1 µM [11]?
A: The remaining binding at 1 µM was 91%.

Q: And the remaining binding at 1 µM ([12]; 1000 nM)?
A: Its remaining binding at 1 µM is 100%.

Q: What about the remaining binding at 0.1 µM ([12]; compound concentration 100 nM, Entrez DYRK1B) of the same compound?
A: Its remaining binding at 0.1 µM is 100%.

Q: What about the remaining binding at 0.1 µM [13] of the same compound?
A: The remaining binding at 0.1 µM was 76%.

Q: And the remaining binding at 1 µM [14]?
A: The remaining binding at 1 µM was 73%.

Q: And the remaining binding at 0.1 µM [15]?
A: The remaining binding at 0.1 µM was 100%.

Q: And the remaining binding at 1 µM [16]?
A: The remaining binding at 1 µM was 90%.

Q: And the remaining binding at 1 µM [17]?
A: The remaining binding at 1 µM was 88%.

Q: And the remaining binding at 1 µM [18]?
A: The remaining binding at 1 µM was 97%.

Q: And the remaining binding at 0.1 µM [19]?
A: The remaining binding at 0.1 µM was 93%.

Q: And the remaining binding at 0.1 µM [20]?
A: Its remaining binding at 0.1 µM is 97%.

Q: What about the remaining binding at 1 µM [21] of the same compound?
A: Its remaining binding at 1 µM is 80%.

Q: What about the remaining binding at 1 µM [22] of the same compound?
A: The remaining binding at 1 µM was 90%.

Q: And the remaining binding at 1 µM [23]?
A: Its remaining binding at 1 µM is 91%.

Q: And the remaining binding at 1 µM [24]?
A: The remaining binding at 1 µM was 83%.

Q: What about the remaining binding at 1 µM [25] of the same compound?
A: The remaining binding at 1 µM was 66%.

Q: What about the remaining binding at 1 µM ([26]; 1000 nM) of the same compound?
A: The remaining binding at 1 µM was 100%.

Q: And the remaining binding at 0.1 µM ([26]; compound concentration 100 nM, Entrez GSK3B)?
A: Its remaining binding at 0.1 µM is 100%.

Q: What about the remaining binding at 1 µM ([27]; 1000 nM) of the same compound?
A: Its remaining binding at 1 µM is 100%.

Q: And the remaining binding at 0.1 µM ([27]; compound concentration 100 nM, Entrez ABL1)?
A: The remaining binding at 0.1 µM was 97%.

Q: And the remaining binding at 1 µM [28]?
A: Its remaining binding at 1 µM is 91%.

Q: What about the remaining binding at 1 µM [29] of the same compound?
A: Its remaining binding at 1 µM is 82%.

Q: And the remaining binding at 0.1 µM [30]?
A: The remaining binding at 0.1 µM was 90%.

Q: What about the remaining binding at 1 µM [31] of the same compound?
A: The remaining binding at 1 µM was 86%.

Q: What about the remaining binding at 1 µM ([32]; 1000 nM) of the same compound?
A: The remaining binding at 1 µM was 100%.

Q: And the remaining binding at 0.1 µM ([32]; compound concentration 100 nM, Entrez CSNK2A1)?
A: Its remaining binding at 0.1 µM is 82%.

Q: What about the remaining binding at 1 µM [33] of the same compound?
A: The remaining binding at 1 µM was 76%.

Q: What about the remaining binding at 1 µM [34] of the same compound?
A: The remaining binding at 1 µM was 98%.

Q: And the remaining binding at 0.1 µM [35]?
A: Its remaining binding at 0.1 µM is 75%.
